Measured values taken from article PMC13372681, “A natural depsipeptide antibiotic binds the E-site of the bacterial ribosome” (Nature, 2026).
In brackets after ≈: the same amount, converted by molar mass. Read-outs that look alike come from different tables or passages of the source. Where a SMILES comes first, the peptide text is derived from it. Bridges are numbered along the chain shown (N, C = ends). [ ]: non-standard residue; d: D form. dOrn = NCCC[C@@H](N)C(=O)O

What was measured:
[1] = human plasma 1:1 with PBS pH 7.4, 10 µM, 37 °C, 0–120 min, LC–MS, % remaining; duplicate, two biological replicates
[2] = system: K. pneumoniae C1459
[3] = system: E. coli C1507; settings: broth microdilution, Ca+ MHB Medium; MDR clinical isolate
[4] = system: M. tuberculosis H37Ra; settings: Middlebrook 7H9 + 10% OADC + 0.05% Tween-80
[5] = system: M. avium subsp. avium ATCC 25291; settings: Middlebrook 7H9 + 10% OADC + 0.05% Tween-80
[6] = system: M. bovis BCG Pasteur ATCC 35734; settings: Middlebrook 7H9 + 10% OADC + 0.05% Tween-80
[7] = system: Bifidobacterium breve GC96; test: MIC, anaerobic gut bacteria; assay type: cell-based; settings: gut isolate, BHI + L-cysteine, haemin, vitamin K, 37 °C
[8] = system: Red blood cells (RBCs); test: Haemolysis assay; assay type: cell-based; settings: human RBCs 1:50 in PBS pH 7.4, 37 °C, 1 h, absorbance 540 nm
Procedure: Human blood was obtained from BioIVT (USA). Red blood cells (RBCs) were separated from blood by centrifugation at 500g for 5 min. Plasma was removed and the RBCs were washed twice with 150 mM NaCl, using a volume equivalent to the removed plasma. After washing, phosphate-buffered saline (PBS) with a pH of 7.4, in a volume equal to the removed plasma, was added to create the RBC suspension. Using a Labcyte Echo acoustic dispenser (Beckman Coulter), 1 µl of the compound was added to the wells of a 96-well V-bottom plate. The final concentration of DMSO was kept at 1% (v/v), with a DMSO-only negative control included in each replicate. For the positive control, 10 µl of Triton X-100 was added, starting at a concentration of 20% and serially diluted twofold to 0.02%. RBCs were diluted 1:50 in PBS (pH 7.4), and 99 µl of this diluted solution was added to each well. The plates were incubated at 37 °C for 1 h, then centrifuged at 500g for 5 min to pellet the intact RBCs. Sixty-five microlitres of the supernatant was transferred to a clear, flat-bottom 96-well plate, and the absorbance was measured at 540 nm.

[9] = system: Lactobacillus plantarum GC4; test: MIC, anaerobic gut bacteria; assay type: cell-based; settings: gut isolate, BHI + L-cysteine, haemin, vitamin K, 37 °C
[10] = system: S. enterica ATCC 14028; settings: broth microdilution, Ca+ MHB Medium
[11] = system: Clostridium perfringens GC1584; settings: gut isolate; BHI + L-cysteine, haemin, vitamin K, anaerobic, 37 °C
[12] = system: S. aureus USA 300; settings: broth microdilution, MHBII
[13] = system: E. coli BW25113
[14] = system: P. aeruginosa PAO1
[15] = in vivo; settings: female, ICR CD-1, mouse, plasma, sc; for level at 8 h / level at 24 h: below limit of quantification
[16] = mouse plasma 1:1 with PBS pH 7.4, 10 µM, 37 °C, 0–120 min, LC–MS, % remaining; duplicate, two biological replicates
[17] = system: E. coli C1508; settings: broth microdilution, MDR clinical isolate
[18] = system: Candida albicans ATCC 90028
[19] = system: Blautia obeum GC925; test: MIC, anaerobic gut bacteria; assay type: cell-based; settings: gut isolate, BHI + L-cysteine, haemin, vitamin K, 37 °C
[20] = system: Bacteroides fragilis GC73; test: MIC, anaerobic gut bacteria; assay type: cell-based; settings: gut isolate, BHI + L-cysteine, haemin, vitamin K, 37 °C
[21] = system: Bacillus subtilis 168
[22] = system: E. coli ΔtolC ΔbamB; settings: broth microdilution
[23] = Acute tolerability in mice; assay type: in vivo; settings: doses up to 220 mg kg^−1 per day (divided into four doses over 20 hours, subcutaneous)
[24] = system: A. baumanii ATCC 17978
[25] = system: S. aureus ATCC 29213
[26] = broth microdilution, Ca+ MHB Medium
[27] = 50 mg/kg, Plasma concentration MKM, s.c. 50 mg/kg, Mouse 2
[28] = 50 mg/kg, Plasma concentration MKM, s.c. 50 mg/kg, Mouse 3
[29] = 50 mg/kg, Plasma concentration MKM, s.c. 50 mg/kg, Mouse 1

C[C@@H](O)[C@@H]1NC(=O)[C@@H](CCCNC(=N)N)NC(=O)[C@@H](CCCNC(=N)N)NC(=O)[C@@H](CC(N)=O)NC(=O)[C@@H](NC(=O)[C@@H](Cc2ccccc2)NC(=O)[C@@H](CCCN)NC(=O)[C@H](N)CCCNC(=N)N)[C@@H](C)OC(=O)[C@H](Cc2c[nH]cn2)NC1=O [MKM-A, manikomycin] (H-[dR][dOrn][dF]T[dN][dR][dR]TH; ester 4-C)
stability in plasma [1]: excellent stability | MIC ([2]; C1459): 8 µg/mL (≈ 6.76 µM) | MIC ([2]; broth microdilution, Ca+ MHB Medium, MDR clinical isolate): 32 µg/mL (≈ 27 µM) | MIC [3]: 32 µg/mL (≈ 27 µM) | MIC [4]: 4 µg/mL | MIC [5]: 32 µg/mL | MIC [6]: 2 µg/mL | MIC [7]: 256 µg/mL | Haemolysis (256 μg/ml) [8]: <1% | MIC [9]: >256 µg/mL | MIC [10]: 32 µg/mL (≈ 27 µM) | MIC [11]: >256 µg/mL | MIC [12]: 128 µg/mL (≈ 108 µM) | MIC ([13]; BW25113): 4 µg/mL (≈ 3.38 µM) | MIC ([13]; broth microdilution, Ca+ MHB Medium (cation-adjusted MHB)): 32 µg/mL (≈ 27 µM) | MIC ([14]; PAO1): >64 µg/mL | MIC [14, 26]: >128 µg/mL | MIC ([14]; broth microdilution, MOPS Minimal Medium): >128 µg/mL | Cmax ([15]; 50 mg kg^−1): 9130 ng/mL | half-life ([15]; 50 mg kg^−1): ~36 min | level at 0.25 h ([15]; 50 mg/kg, Plasma concentration MKM, s.c. 50 mg/kg, Mouse 1, linear range 1.6–50 µg/ml): 6650 ng/mL | level at 0.25 h [15, 27]: 8580 ng/mL | level at 0.25 h [15, 28]: 9540 ng/mL | level at 0.5 h ([15]; 50 mg/kg, Plasma concentration MKM, s.c. 50 mg/kg, Time 0.5 (h), Mouse 3): 9170 ng/mL | level at 1 h [15, 29]: 6890 ng/mL | level at 1 h [15, 27]: 9080 ng/mL | level at 1 h [15, 28]: 6930 ng/mL | level at 2 h [15, 29]: 1470 ng/mL | level at 2 h [15, 27]: 1060 ng/mL | level at 2 h [15, 28]: 2600 ng/mL | level at 8 h [15, 29]: 386 ng/mL | level at 8 h [15, 27]: 55.8 ng/mL | level at 8 h [15, 28]: 108 ng/mL | level at 24 h [15, 29]: 71.5 ng/mL | level at 24 h [15, 27]: 27.3 ng/mL | level at 24 h [15, 28]: 68 ng/mL | stability in plasma [16]: excellent stability | MIC ([17]; Ca+ MHB Medium): 32 µg/mL (≈ 27 µM) | MIC ([17]; MOPS Minimal Medium): 16 µg/mL (≈ 13.5 µM) | MIC ([17]; RPMI Medium): 4 µg/mL (≈ 3.38 µM) | MIC [18]: >64 µg/mL | MIC [19]: >256 µg/mL | MIC [20]: >256 µg/mL | MIC [21]: >64 µg/mL | MIC ([22]; Ca+ MHB Medium): 8 µg/mL (≈ 6.76 µM) | MIC ([22]; MOPS Minimal Medium): 2 µg/mL (≈ 1.69 µM) | MIC ([22]; RPMI Medium): 2 µg/mL (≈ 1.69 µM) | acute tolerability [23]: acceptable acute tolerability | MIC ([24]; ATCC 17978): 64 µg/mL (≈ 54.1 µM) | MIC [24, 26]: >128 µg/mL | MIC [25]: 64 µg/mL (≈ 54.1 µM)
